Test: Stability test according to ICH guidelines, related substances by in-house HPLC method
Type: physicochemical
Details: rosuvastatin calcium amorphous active substance (raw material)
Method: We performed stability tests on these tablet compositions, according to the method described in ICH guidelines. The tablets were packed in opaque OPA/Al/PVC-Al blisters with very low oxygen and humidity transmission rates. Using a HPLC in house method, we measured the level of lactone and total impurities formed after a period of storage of 12 months at 25°C/60%RH (normal conditions, A1) and of 6 months at 40°C/[…]. The results were compared with those obtained for the tablets at the moment of release (TO) and those obtained for the rosuvastatin calcium amorphous active substance (Table 2). Table 2. Related substances values for the tested formulations

With `CC(C)c1nc(N(C)S(C)(=O)=O)nc(-c2ccc(F)cc2)c1/C=C/[C@@H](O)C[C@@H](O)CC(=O)[O-].CC(C)c1nc(N(C)S(C)(=O)=O)nc(-c2ccc(F)cc2)c1/C=C/[C@@H](O)C[C@@H](O)CC(=O)[O-].[Ca+2]` [RC amorphous, bis [(E)-7-[4-(4-fluorophenyl)-6-isopropyl-2-[methyl(methylsulfonyl)amino]pyrimidin-5-yl]-(3R,5S)-dihydroxyhept-6-enoic acid] calcium salt] the “Lactone, %” value was 0.010% and the “Total impurities, %” value was 0.150%.
